Assay results as given in patent US20240308968A1, “FUNGICIDAL SUBSTITUTED HETEROCYCLES” (FMC Corporation, priority 2021, published 2024).

Key:
[1] = system: Botrytis cinerea; assay: Test E: preventive spray on tomato seedlings, tomato Botrytis disease rating; type: in vivo; conditions: Botrytis cinerea, 120 h, 50 ppm, 100 = 100% disease control, 0 = no control
How it was run: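 Tomato seedlings sprayed to run-off with compound suspended in acetone/water with PEG400 surfactant, then inoculated next day with Botrytis cinerea spores. Held 48 h saturated at 20 °C, then 3 days at 24 °C; disease rated visually, 0 to 100% control relative to controls.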

[2] = system: Phakopsora pachyrhizi; assay: Test D: preventive spray on soybean seedlings, Asian soybean rust disease rating; type: in vivo; conditions: Phakopsora pachyrhizi, 216 h, 50 ppm, 100 = 100% disease control, 0 = no control
How it was run: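 Compounds in acetone/water (50/50) with 50–250 ppm PEG400 sprayed to run-off on soybean seedlings; inoculated next day with P. pachyrhizi spores, held 24 h saturated at 22° C, then 8 days at 22° C before visual disease rating.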

[3] = system: Puccinia recondita f. sp. Tritici; assay: Test B: preventive spray on wheat seedlings, wheat leaf rust disease rating; type: in vivo; conditions: Puccinia recondita, 192 h, 50 ppm, 100 = 100% disease control, 0 = no control
How it was run: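 Compounds in acetone/water (50/50) with 50-250 ppm PEG400 sprayed to run-off on wheat seedlings; inoculated with P. recondita spores next day. Held 24 h saturated at 20° C., then 7 days in growth chamber at 20° C. before rating; 100 = full control, 0 = none versus controls.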

[4] = system: Zymoseptoria tritici; assay: Test A: preventive spray on wheat seedlings, wheat leaf blotch disease rating; type: in vivo; conditions: Zymoseptoria tritici, 456 h, 50 ppm, 100 = 100% disease control, 0 = no control
How it was run: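 Compounds in acetone/water (50/50) with 50–250 ppm PEG400, sprayed to run-off on wheat seedlings. Inoculated next day with Z. tritici spores, 48 h saturated atmosphere at 24 °C, then 17 days at 20 °C before disease rating.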

[5] = system: Blumeria graminis f. sp. Tritici; assay: Test C: preventive spray on wheat seedlings, wheat powdery mildew disease rating; type: in vivo; conditions: Blumeria graminis, 192 h, 50 ppm, 100 = 100% disease control, 0 = no control
How it was run: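 Wheat seedlings sprayed to run-off with test suspension (acetone 3% dissolution, then acetone/water 50/50 with 50–250 ppm PEG400), inoculated next day with Blumeria graminis spore dust. Held 8 days at 20° C in growth chamber, then visually rated (100 = full control, 0 = none, relative to controls).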

[6] = system: Alternaria solani; assay: Test F: preventive spray on tomato seedlings, tomato early blight disease rating; type: in vivo; conditions: Alternaria solani, 120 h, 50 ppm, 100 = 100% disease control, 0 = no control
How it was run: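 Tomato seedlings were sprayed to run-off with compound suspensions in ppm (acetone/water with PEG400 surfactant) and inoculated with Alternaria solani spores the next day. Plants were held 48 h saturated at 27 °C, then 3 days at 20 °C. Disease was rated visually, with 100 as full control and 0 as none, relative to controls.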

Row | SMILES | melting point | pest or weed control at 50 ppm [1] | pest or weed control at 50 ppm [2] | pest or weed control at 50 ppm [3] | pest or weed control at 50 ppm [4] | pest or weed control at 50 ppm [5] | pest or weed control at 50 ppm [6]
1 | COc1cc(OC)c(Cl)c(-n2nc(Br)c(=O)c(C)c2-c2ccc(F)cc2Cl)c1 [Compound 94, 3-bromo-6-(2-chloro-4-fluorophenyl)-1-(2-chloro-3,5-dimethoxyphenyl)-5-methyl-4(1H)-pyridazinone] | 191 to 194 °C | 98% | 100% | 100% | 100% | 100% | 100%
2 | COc1cc(OC)cc(-n2nc(C)c(=O)c(C)c2-c2ccc(F)cc2Cl)c1 [Compound 97, 6-(2-chloro-4-fluorophenyl)-3,5-dimethyl-1-(3,5-dimethoxyphenyl)-4(1H)-pyridazinone] | 148 to 151 °C | 96% | 100% | 100% | 100% | 99% | 100%
3 | COc1ccc(Cl)c(-n2nc(C)c(=O)c(Cl)c2-c2ccc(F)cc2)c1 [Compound 105, 5-chloro-1-(2-chloro-5-methoxyphenyl)-6-(4-fluorophenyl)-3-methyl-4(1H)-pyridazinone] | 207 to 210 °C | 98% | 96% | 100% | 100% | 95% | 100%
4 | COc1cc(OC)c(Cl)c(-c2cc(C#N)c(=O)n(C)c2-c2ccc(F)cc2Cl)c1 [Compound 156, 5-(2-chloro-3,5-dimethoxyphenyl)-6-(2-chloro-4-fluorophenyl)-1,2-dihydro-1-methyl-2-oxo-3-pyridinecarbonitrile] | 209 to 211 °C | 98% | 99% | 100% | 100% | 98% | 91%
5 | CCn1c(-c2ccc(F)cc2Cl)c(-c2cc(OC)cc(OC)c2Cl)cc(C#N)c1=O [Compound 157, 5-(2-chloro-3,5-dimethoxyphenyl)-6-(2-chloro-4-fluorophenyl)-1,2-dihydro-1-ethyl-2-oxo-3-pyridinecarbonitrile] | 100 to 103 °C | 99% | 97% | 100% | 100% | 96% | 98%
